The text below walks through data of patent publication US20130191933A1, “METHODS OF TREATING PAIN AND MORPHINE TOLERANCE VIA MODULATION OF HEDGEHOG SIGNALLING PATHWAY” (BOARD OF REGENTS, THE UNIVERSITY OF TEXAS SYSTEM, priority 2010, published 2013).

Molecules are shown by their SMILES. “Also recorded” adds a separate entry of the source.

One assay deals with Smo (Homo sapiens, UniProt Q99835). The conditions noted are these: cited from earlier work.
Assay [1] has as its system Gli-mediated transcription. The settings on record: cited from earlier work; for Gli-mediated transcription: in a variety of cell types (Cur-61414: cell and tissues types; Robotnikinin: also synthetic human tissue).
Assay [2] concerns Ptchl and BCL2 in HaCaT cells. The settings on record: cited from earlier work.
Assay [3] concerns Glil,2-mediated transcription in HaCat cells. The conditions noted are these: cited from earlier work.
The test system of assay [4] is rats with complete Freund's adjuvant (CFA) injection (inflammatory pain). Briefly: Inflammatory pain paradigm: CFA hindpaw injection, thermal hyperalgesia by paw withdrawal latency (PWL). The conditions noted are these: rats after CFA hindpaw injection; for analgesic effect on thermal hyperalgesia (paw withdrawal latency, PWL): intrathecal (lumbar puncture) drug, Days 1-4; for development of tolerance to the analgesic effect (PWL): repeated intrathecal dosing. In kind it is in vivo, Sprague-Dawley rats. On the procedure:
Animals underwent complete Freund's adjuvant (CFA) injection under anesthesia. Hyperalgesia was then measured using withdrawal latency of the paw to a thermal stimulus (PWL). […] Drugs were administered using lumbar puncture under anesthesia.
Hyperalgesia was then measured using withdrawal latency of the paw to a thermal stimulus (PWL). […] Drugs were administered using lumbar puncture under anesthesia..
To test this, we examined the effects of pharmacologically blocking Smoothened activity in rodent pain models. Injection of Complete Freund's Adjuvant (CFA) into the rat hindpaw causes local inflammation, swelling, and decreased nociceptive thresholds, Stein, C., et al., A. Unilateral inflammation of the Hindpaw in rats as a Model of Prolonged Noxious Stimulation: Alterations in Behavior and Nociceptive Thresholds, Pharmacol Biochem Behav 31, […] (1988). FIG. 11 provides an inflammatory pain paradigm. Here, the hindpaws were injected with saline (sham, n=6), or CFA. […] Similarly, FIG. 10 provides a neuropathic pain paradigm. […] Animals received daily intrathecal injections of vehicle (n=3) or drugs (CP, n=6; MS, n=6; or MS+CP, n=5). Mechanical allodynia was assessed using Von Frey filaments. […] All data are+/−S.E.M.
Animals: Sprague-Dawley rats (male, […]) were housed three to a cage with water and food ad libitum and kept in temperature controlled rooms on a 12:12 hour light-dark cycle, with the dark cycle beginning at 7:00 pm. Animals were habituated to the testing environment for one week prior to testing and all tests were performed in the morning. All protocols were approved by our Institutional Animal Care and Use Committee.
Drugs and Intermittent Lumbar Puncture: Rats were anesthetized with 2% isoflurane in oxygen. The lumbar region was shaved, prepared with Betadine solution and the intervertebral spaces widened by placing the animal on a plexiglas tube.
Complete Freund's Adjuvant (CFA) […]: Under isoflurane […], the plantar surface of the left hindpaw was cleansed and 100 μl of CFA (Sigma, St. Louis, Mo.) injected using a 25-gauge needle. Animals recovered for 24 hours prior to analgesic testing.
Paw Withdrawal Latency (PWL): PWL was measured by placing the animals in Plexiglas cages (9×22×25 cm.) on a modified Hargreaves Device, consisting of a glass surface maintained at 30° C. A stimulus lamp was focused on the tail with three measurements taken on different portions of the tail. An abrupt flick of the tail secondary to the thermal stimulus was sensed by photodiodes, and this served to terminate the stimulus and stop the timer. Animals were habituated to the device for one week prior to testing and for 30 min before each test session. The intensity of the thermal stimulus used in the TFL test was adjusted so baseline TFL was between 10-12 seconds to 20 second was used as an automatic cutoff time to avoid paw damage. The TFLs at the time points of 15, 30, and 45 minutes post-injection were measured and compared (n=6-8 per group).

Assay [5] concerns rats with sciatic nerve ligation (neuropathic pain). Briefly: Neuropathic pain paradigm: sciatic nerve ligation, mechanical allodynia by Von Frey filaments. The conditions noted are these: rats two weeks after sciatic nerve ligation; daily intrathecal (lumbar puncture) drug; sub-clinical/low dose of morphine. It counts as in vivo, Sprague-Dawley rats. On the procedure:
Animals underwent sciatic nerve ligation as described (Chung et al.), and were then allowed to recover for two weeks. Allodynia was measured using mechanical withdrawal threshold (Von Frey hairs). […] Drugs were administered using lumbar puncture under anesthesia.
Hh signaling modulates neuropathic pain, inflammatory pain, and opioid tolerance in rats. […] With regards to neuropathic pain, animals underwent sciatic nerve ligation as previously described in Chung et al., and were then allowed to recover for two weeks. Allodynia was measured by assessing the withdrawal threshold to a mechanical stimulus (Von Frey hairs). […] Drugs were administered using lumbar puncture under anesthesia.
To test this, we examined the effects of pharmacologically blocking Smoothened activity in rodent pain models. Injection of Complete Freund's Adjuvant (CFA) into the rat hindpaw causes local inflammation, swelling, and decreased nociceptive thresholds, Stein, C., et al., A. Unilateral inflammation of the Hindpaw in rats as a Model of Prolonged Noxious Stimulation: Alterations in Behavior and Nociceptive Thresholds, Pharmacol Biochem Behav 31, […] (1988). FIG. 11 provides an inflammatory pain paradigm. Here, the hindpaws were injected with saline (sham, n=6), or CFA. […] Similarly, FIG. 10 provides a neuropathic pain paradigm. […] Mechanical allodynia was assessed using Von Frey filaments. […]

Smo, sequence (Q99835 28-787): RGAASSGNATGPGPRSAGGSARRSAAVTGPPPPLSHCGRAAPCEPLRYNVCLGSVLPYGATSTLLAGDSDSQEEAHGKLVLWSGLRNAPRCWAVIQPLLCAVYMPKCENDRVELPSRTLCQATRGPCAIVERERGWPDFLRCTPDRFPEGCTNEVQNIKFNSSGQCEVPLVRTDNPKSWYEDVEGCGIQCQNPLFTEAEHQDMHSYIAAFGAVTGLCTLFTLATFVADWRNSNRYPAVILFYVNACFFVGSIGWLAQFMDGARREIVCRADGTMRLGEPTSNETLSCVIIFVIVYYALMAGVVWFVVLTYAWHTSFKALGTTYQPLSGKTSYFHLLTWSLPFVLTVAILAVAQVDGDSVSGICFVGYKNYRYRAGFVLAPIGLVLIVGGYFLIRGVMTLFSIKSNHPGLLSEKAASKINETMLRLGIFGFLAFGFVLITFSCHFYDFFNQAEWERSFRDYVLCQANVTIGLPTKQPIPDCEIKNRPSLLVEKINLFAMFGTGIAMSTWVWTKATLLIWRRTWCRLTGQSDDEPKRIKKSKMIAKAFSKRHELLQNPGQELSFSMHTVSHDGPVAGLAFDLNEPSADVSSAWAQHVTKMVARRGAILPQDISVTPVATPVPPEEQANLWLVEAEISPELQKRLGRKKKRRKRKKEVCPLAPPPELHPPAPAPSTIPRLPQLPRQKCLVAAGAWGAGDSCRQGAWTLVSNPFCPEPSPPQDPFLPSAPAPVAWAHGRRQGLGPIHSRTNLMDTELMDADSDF

As for `CC(C)CCC[C@](C)(O)[C@H]1CC[C@H]2[C@@H]3CC=C4C[C@@H](O)CC[C@]4(C)[C@H]3CC[C@@]21C` [20α-Hydroxycholesterol], the “targeting / binding of Smo” value on Smo is listed as “Does not bind directly to Smo”. Further, the Gli-mediated transcription entry in assay [1] is given as “Activates Gli-mediated transcription in a variety of cell types”.

`CC(C)CC[C@H](O)[C@@H](C)[C@H]1CC[C@H]2[C@@H]3CC=C4C[C@@H](O)CC[C@]4(C)[C@H]3CC[C@]12C` [22(S)-Hydroxycholesterol]: the “targeting / binding of Smo” value on Smo is “Does not bind directly to Smo”. Moreover, the Gli-mediated transcription result in assay [1] is reported as “Activates Gli-mediated transcription in a variety of cell types”.

As to `CC(C)[C@@H](O)CC[C@@H](C)[C@H]1CC[C@H]2[C@@H]3CC=C4C[C@@H](O)CC[C@]4(C)[C@H]3CC[C@]12C` [24(S)-Hydroxycholesterol], the “targeting / binding of Smo” value at Smo is given as “Does not bind directly to Smo”. The Gli-mediated transcription result in assay [1] is on record as “Activates Gli-mediated transcription in a variety of cell types”.

Consider `C[C@H](CCCC(C)(C)O)[C@H]1CC[C@H]2[C@@H]3CC=C4C[C@@H](O)CC[C@]4(C)[C@H]3CC[C@]12C` [25-Hydroxycholesterol], for which the “targeting / binding of Smo” value at Smo is “Does not bind directly to Smo”. Further, in assay [1], the Gli-mediated transcription entry is “Activates Gli-mediated transcription in a variety of cell types”.

For `COc1cccc(CN(C(=O)CC(C)(C)C)[C@H]2C[C@@H](C(=O)N3CCNCC3)N(Cc3ccc4c(c3)OCO4)C2)c1` [Cur-61414], at Smo, the “targeting / binding of Smo” value is “Targets Smo”.

For `c1cc(-c2sc(-c3ccncc3)c(-c3ccncc3)c2-c2ccncc2)ccn1` [GANT58], in assay [1], the “site of action in the pathway” value was “Acts downstream of Smo and Sufu”; the Gli-mediated transcription entry is “Represses Gli-medicated transcription in a variety of cell types”.

As to `CN(C)c1ccccc1CN1CCCN(Cc2ccccc2N(C)C)C1c1ccncc1` [GANT61], in assay [1], the “site of action in the pathway” value is “Acts downstream of Smo and Sufu”; the Gli-mediated transcription entry is listed as “Represses Gli-medicated transcription in a variety of cell types”.

Take `CS(=O)(=O)c1ccc(C(=O)Nc2ccc(Cl)c(-c3ccccn3)c2)c(Cl)c1` [GDC-0449]: on Smo, the “targeting / binding of Smo” value is listed as “Targets Smo”. Further, in assay [1], the Gli-mediated transcription entry was “Represses Gli-medicated transcription in a variety of cell types”.

In the case of `CC1=C2C[C@H]3[C@@H](CC[C@@H]4C[C@H](NS(C)(=O)=O)CC[C@@]43C)[C@@H]2CC[C@@]2(C1)O[C@@H]1C[C@H](C)CN[C@H]1[C@H]2C` [IPI-926], the “targeting / binding of Smo” value on Smo is “Targets Smo”. Besides, the Gli-mediated transcription result in assay [1] is on record as “Represses Gli-medicated transcription in a variety of cell types”.

Take `CC1=C2C[C@H]3[C@@H](CC=C4CC(=O)CC[C@@]43C)[C@@H]2CC[C@]12O[C@@H]1C[C@H](C)CN(CCNC(=O)CCCCCNC(=O)CCc3ccccc3)[C@H]1[C@H]2C` [KAAD-cyclopamine]: the “targeting / binding of Smo” value at Smo was “target Smo”.

For `C[C@]12C(=O)C=CCC1=CC[C@@H]1[C@@H]2CC[C@]2(O)C(=O)O[C@@]3(C)[C@H]4C[C@]5(C)[C@@H](CO[C@@]16O[C@@]32[C@H]5C6=O)C(=O)O4` [Physalin B], the “transcription of Ptchl and BCL2” value in assay [2] is “Inhibits transcription of Ptchl and BCL2 in HaCaT cells”. Besides, the “Glil,2-mediated transcription” value in assay [3] is recorded as “Inhibits Glil,2-mediated transcription in HaCat cells”.

With `C[C@@]12C[C@H]3OC(=O)[C@@H]1CO[C@]14O[C@]5([C@H]2C1=O)[C@@](O)(CC[C@H]1[C@H]4C[C@H]2O[C@]24CC=CC(=O)[C@]14C)C(=O)O[C@@]35C` [Physalin F], the “transcription of Ptchl and BCL2” value in assay [2] was “Inhibits transcription of Ptchl and BCL2 in HaCaT cells”. Moreover, the “Glil,2-mediated transcription” value in assay [3] is “Inhibits Glil,2-mediated transcription in HaCat cells”.

With `c1ccc2c(Oc3nc(Nc4ccc(N5CCOCC5)cc4)c4ncn(C5CCCCC5)c4n3)cccc2c1` [Purmorphamine], the “targeting / binding of Smo” value at Smo was “Binds Smo and competes directly with cyclopamine-Smo”. For the same compound, the Gli-mediated transcription entry in assay [1] is “Activates Gli-mediated transcription in a variety of cell types”.

For `CNC1CCC(N(Cc2cccc(-c3ccncc3)c2)C(=O)c2sc3ccccc3c2Cl)CC1` (centres unmarked) [SAG], the “targeting / binding of Smo” value on Smo was “Binds Smo and competes directly with cyclopamine-Smo”. Further, the Gli-mediated transcription result in assay [1] was “Activates Gli-mediated transcription in a variety of cell types”.

For `Cc1nn(-c2ccccc2)c(C)c1/C=N/N1CCN(Cc2ccccc2)CC1` [SANT1], the “targeting / binding of Smo” value at Smo was “Targets Smo”. In addition, the Gli-mediated transcription result in assay [1] is given as “Represses Gli-medicated transcription in a variety of cell types”.

For `CCOc1cc(C(=O)Nc2ccc(Cl)c(-c3nc4ccccc4[nH]3)c2)cc(OCC)c1OCC` [SANT2], the “targeting / binding of Smo” value on Smo was “Targets Smo”. Further, the Gli-mediated transcription result in assay [1] is “Represses Gli-medicated transcription in a variety of cell types”.

Regarding `CCc1ccc(-c2ccc(/C=C/C(=O)N3CCCCC3)cc2)nc1` [SANT4], the “targeting / binding of Smo” value on Smo is on record as “Targets Smo”. Also, in assay [1], the Gli-mediated transcription entry is given as “Represses Gli-medicated transcription in a variety of cell types”.

In the case of `O=C1NCc2c1c1c3ccccc3[nH]c1c1[nH]c3ccccc3c21` [Staurosporinone], the “transcription of Ptchl and BCL2” value in assay [2] was “Inhibits transcription of Ptchl and BCL2 in HaCaT cells”. Moreover, the “Glil,2-mediated transcription” value in assay [3] is given as “Inhibits Glil,2-mediated transcription in HaCat cells”.

As for `C/C1=C\CC(C)(C)/C=C/C(=O)/C(C)=C/CC1` [Zerumbone], the “transcription of Ptchl and BCL2” value in assay [2] was “Inhibits transcription of Ptchl and BCL2 in HaCaT cells”. Besides, in assay [3], the “Glil,2-mediated transcription” value was “Inhibits Glil,2-mediated transcription in HaCat cells”.

`CN1CC[C@]23c4c5ccc(O)c4O[C@H]2[C@@H](O)C=C[C@H]3[C@H]1C5` [morphine]: in assay [4], the “analgesic effect on thermal hyperalgesia (paw withdrawal latency, PWL)” value is “caused analgesia” and the “development of tolerance to the analgesic effect (PWL)” value is “tolerance developed with repeated dosing”. Also, in assay [4] (listed as Morphine), the “analgesic effect on thermal hyperalgesia (paw withdrawal latency, PWL)” value is “exhibited analgesic effects” and the “development of tolerance to the analgesic effect (PWL)” value was “tolerance developed rapidly”. Also, in assay [5], the “analgesic effect on mechanical allodynia (mechanical withdrawal threshold, Von Frey)” value is “Neither morphine or cyclopamine had analgesic effects; also recorded: Neither a sub-clinical dose of morphine nor cyclopamine had analgesic effects; also recorded: neither cyclopamine nor a low dose of morphine had analgesic effects alone”.
